The record followed here is US12304938B2, “Processes and intermediates for preparing tirzepatide” (Eli Lilly and Company, priority 2022, dated 2025).

Peptide text beside a SMILES is read from it. * marks the point of attachment. Fmoc = O=C(OCC1c2ccccc2-c2ccccc21)*; tBu = CC(C)(C)*

This series is described as follows: Physical stability of solid form on isolation/drying (crystallization screen). As to conditions: wet solids from 1:1 v/v ACN/MTBE slurry, upon isolation/drying. The format is physicochemical. How it is done:
A crystallization screen was performed on Fmoc-G-P-S(tBu)-S(tBu)-G-OH (SEQ ID NO: 19) free form using various solvents and solvent mixtures. Different crystallization methods were employed including solvent-based techniques such as slurry, cooling, ambient and sub-ambient temperatures holding, solvent/anti-solvent addition, or combination of techniques, and non-solvent-based techniques such as heat stress.
Three solid forms were identified: Fmoc-G-P-S(tBu)-S(tBu)-G-OH (SEQ ID NO: 19) Form A, Fmoc-G-P-S(tBu)-S(tBu)-G-OH (SEQ ID NO: 19) Form C, and Fmoc-G-P-S(tBu)-S(tBu)-G-OH (SEQ ID NO: 19) Form D. Form A was a solvated form produced from 1-propanol (1-PrOH) or mixtures containing 1-PrOH (such as 1-PrOH/heptane). Form D is a solvated form produced from acetonitrile (ACN) or mixtures containing ACN (such as ACN/MTBE). Form C is a conversion product when Form D is isolated and dried.
The suspension was seeded with Fmoc-G-P-S(tBu)-S(tBu)-G-OH (SEQ ID NO: 19) Form C and then left at ambient conditions to continue stirring for 2 days.

On to `CC(C)(C)OC[C@H](NC(=O)[C@H](COC(C)(C)C)NC(=O)[C@@H]1CCCN1C(=O)CNC(=O)OCC1c2ccccc2-c2ccccc21)C(=O)NCC(=O)O` [Fmoc-Gly-Pro-Ser(tBu)-Ser(tBu)-Gly-OH] (Fmoc-GPS(tBu)S(tBu)G-OH), for which the “physical stability of solid form” value is given as “physically not stable”.
